The results in this text go back to patent publication US8372864B2, “1-oxo-isoindoline-4-carboxamide and 1-oxo-1,2,3,4-tetrahydroisoquinoline-5-carboxamide derivatives, preparation and therapeutic use thereof” (Sanofi, priority 2007, dated 2013).

For orientation: melting point means the temperature, or range, at which the solid turns liquid.

Each structure is given as a SMILES string. pIC50: −log10 of the molar value. Structures can show the parent of a compound that is named as a salt.

For one series, the target named is T1, purified recombinant form of human BACE1 aspartyl protease (Homo sapiens, UniProt P56817).
T1 construct: hexahistidine (C); made in house; host or cells: Drosophila cells
T1 sequence (P56817 46-501): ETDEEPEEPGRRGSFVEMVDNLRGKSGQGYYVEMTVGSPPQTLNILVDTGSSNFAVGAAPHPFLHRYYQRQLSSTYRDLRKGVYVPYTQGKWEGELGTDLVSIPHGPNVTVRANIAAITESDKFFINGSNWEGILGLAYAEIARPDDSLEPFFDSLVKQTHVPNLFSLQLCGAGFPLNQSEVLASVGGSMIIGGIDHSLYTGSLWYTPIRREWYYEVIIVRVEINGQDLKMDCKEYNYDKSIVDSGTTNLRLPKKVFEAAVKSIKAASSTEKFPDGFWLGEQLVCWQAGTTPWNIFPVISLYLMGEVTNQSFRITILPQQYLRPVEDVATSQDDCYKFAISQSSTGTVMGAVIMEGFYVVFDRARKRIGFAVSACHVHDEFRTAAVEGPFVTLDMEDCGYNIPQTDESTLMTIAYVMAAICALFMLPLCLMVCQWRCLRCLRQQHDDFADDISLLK
Put plainly: in vitro inhibition of β-secretase (BACE1) activity, FRET cleavage of fluorogenic peptide substrate FS1. Format: biochemical. The following applies: purified enzyme 10 nM, substrate FS1 5 μM, sodium acetate buffer pH 4.5, 37° C., 45 minutes; read-out: IC50 (concentration of product giving 50% inhibition of the enzyme activity). As for the experimental part: The tests consisted in measuring the in vitro inhibition of the β-secretase activity by the compounds of the invention.
The β-secretase activity measured corresponds to that of a purified recombinant form of human BACE1 aspartyl protease (the latter comprising a hexahistidine tag at the C-terminal position) produced by expression in Drosophila cells. The purified enzyme is conditioned in TRIS buffer (18 mM) at pH 7.5 containing NaCl (0.45M), MnCl2 (0.9 mM), CaCl2 (0.9 mM), α-D-methylmannoside and 10% glycerol, and stored at −80° C. until use.
The BACE1 activity is measured from the cleavage of a fluorogenic peptide substrate, known as FS1, described originally by Ermolieff et Coll. (2000, Biochemistry, 39, 12450-12456), and based on the principle of fluorescence resonance energy transfer (FRET); the cleavage of the FS1 peptide is measured from the increase of the fluorescent signal emitted by the EDANS (or 5-[(2-aminoethyl)amino]naphthalene-[…]) group. The test is carried out in a 96-well microplate in order to determine the inhibition of the enzyme activity by the products of the invention. The substrate FS1 is solubilized to a concentration of 1 mM in 100% dimethylsulfoxide (DMSO) and stored at −20° C. until use. The dilutions of the products to be tested are prepared in DMSO starting from a 10 mM stock solution. The products of the invention, at final concentrations of 0.003 to 10 μM are incubated at 37° C. with the substrate FS1 (final concentration of 5 μM) and the purified enzyme (final concentration of 10 nM) in the sodium acetate buffer (0.1M), pH 4.5 containing 0.02% of CHAPS detergent and 200 mM NaCl for 45 minutes. […] When the incubation is finished, the fluorescence is measured in a spectrofluorimeter, at the excitation wavelength of 355 nm and emission wavelength of 509 nm. For each product concentration tested, the fluorescent signal is compared to the maximum signal obtained when the substrate FS1 is only incubated with the enzyme.
The inhibitory activity of the products of the invention is then evaluated by the measurement of the IC50 (concentration of product giving 50% inhibition of the enzyme activity) using a non-linear regression analysis (computer application software XLfit, IDBS™).
For the molecule `CCCC(CCC)N1Cc2c(C(=O)N[C@@H](Cc3ccccc3)[C@H](O)CNCc3cccc(C(F)(F)F)c3)cccc2C1=O` [Compound 1, N-[(1S,2R)-1-benzyl-2-hydroxy-3-{[3-(trifluoromethyl)benzyl]amino}propyl]-1-oxo-2-(1-propylbutyl)isoindoline-4-carboxamide hydrochloride (1:1)], the pIC50 was 6.11.

On to `CCCC(CCC)N1CCc2c(C(=O)N[C@@H](Cc3cc(F)cc(F)c3)[C@H](O)CNC3(c4cccc(C(F)(F)F)c4)CC3)cc(N(C)S(C)(=O)=O)cc2C1=O` [Compound 9, N-[(1S,2R)-1-(3,5-difluorobenzyl)-2-hydroxy-3-({1-[3-(trifluoromethyl)phenyl]cyclopropyl}amino)propyl]-7-[methyl(methylsulfonyl)amino]-1-oxo-2-(1-propylbutyl)-1,2,3,4-tetrahydroisoquinoline-5-carboxamide hydrochloride (1:1)], for which the pIC50 was 7.32.

Consider `CCCC(CCC)N1CCc2c(C(=O)N[C@@H](Cc3cc(F)cc(F)c3)[C@H](O)CNC3(c4cccc(C(F)(F)F)c4)CC3)cc(-c3cccc(C#N)c3)cc2C1=O` [Compound 16, N-[(1S,2R)-1-(3,5-difluorobenzyl)-2-hydroxy-3-({1-[3-(trifluoromethyl)phenyl]cyclopropyl}amino)propyl]-7-(3-cyanophenyl)-1-oxo-2-(1-propylbutyl)-1,2,3,4-tetrahydroisoquinoline-5-carboxamide hydrochloride (1:1)], for which the pIC50 was 6.41.

As for `CCCC(CCC)N1CCc2c(C(=O)N[C@@H](Cc3cc(F)cc(F)c3)[C@H](O)CNC3(c4cccc(C(F)(F)F)c4)CC3)cc(-c3ccccc3C#N)cc2C1=O` [Compound 17, N-[(1S,2R)-1-(3,5-difluorobenzyl)-2-hydroxy-3-({1-[3-(trifluoromethyl)phenyl]cyclopropyl}amino)propyl]-7-(2-cyanophenyl)-1-oxo-2-(1-propylbutyl)-1,2,3,4-tetrahydroisoquinoline-5-carboxamide hydrochloride (1:1)], the pIC50 is 6.20.

Test system in the next series: not given
Assay: not given
Details: not given
As for `CC(c1ccc(F)cc1)N1CCc2c(C(=O)N[C@@H](Cc3cc(F)cc(F)c3)[C@H](O)CNC3(c4cccc(C(F)(F)F)c4)CC3)cccc2C1=O.Cl` (some centres unmarked), the melting point is 157 °C.

The molecule `CCCC(CCC)N1Cc2c(C(=O)N[C@@H](Cc3cc(F)cc(F)c3)[C@H](O)CNC3(c4cccc(C(F)(F)F)c4)CC3)cc(N(C)S(C)(=O)=O)cc2C1=O.Cl` returned a melting point of 194 °C.

`CCCC(CCC)N1CCc2c(C(=O)N[C@@H](Cc3cc(F)cc(F)c3)[C@H](O)CNC3(c4cccc(C(F)(F)F)c4)CC3)cc(C(F)(F)F)cc2C1=O.Cl` came in with a melting point of 196 °C.

As to `CCCC(CCC)N1CCc2c(C(=O)N[C@@H](Cc3ccccc3)[C@H](O)CNC3(c4cccc(C(F)(F)F)c4)CC3)cccc2C1=O.Cl`, the melting point came to 174 °C.

For `CCCC(CCC)N1CCc2c(C(=O)N[C@@H](Cc3cc(F)cc(F)c3)[C@H](O)CNC3(c4cccc(C(F)(F)F)c4)CC3)cccc2C1=O.Cl`, the melting point turned out to be 172 °C.

Molecule `Cl.O=C(N[C@@H](Cc1cc(F)cc(F)c1)[C@H](O)CNC1(c2cccc(C(F)(F)F)c2)CC1)c1cccc2c1CCN(Cc1ccccc1)C2=O` gave a melting point of 178 °C.

The molecule `CCCCCN1CCc2c(C(=O)N[C@@H](Cc3cc(F)cc(F)c3)[C@H](O)CNC3(c4cccc(C(F)(F)F)c4)CC3)cccc2C1=O.Cl` showed a melting point of 165 °C.
